{"source": "patent US12492188B2", "about": "“1H-benzo[D]imidazole derivatives as TLR9 inhibitors for the treatment of fibrosis” (BRISTOL-MYERS SQUIBB COMPANY, priority 2020, dated 2025)", "target": "T1, human TLR9 (Homo sapiens, UniProt Q9NR96)", "T1 construct": "host or cells: HEK-Blue cells (HEK293-derived reporter line)", "T1 sequence (Q9NR96 26-1032)": "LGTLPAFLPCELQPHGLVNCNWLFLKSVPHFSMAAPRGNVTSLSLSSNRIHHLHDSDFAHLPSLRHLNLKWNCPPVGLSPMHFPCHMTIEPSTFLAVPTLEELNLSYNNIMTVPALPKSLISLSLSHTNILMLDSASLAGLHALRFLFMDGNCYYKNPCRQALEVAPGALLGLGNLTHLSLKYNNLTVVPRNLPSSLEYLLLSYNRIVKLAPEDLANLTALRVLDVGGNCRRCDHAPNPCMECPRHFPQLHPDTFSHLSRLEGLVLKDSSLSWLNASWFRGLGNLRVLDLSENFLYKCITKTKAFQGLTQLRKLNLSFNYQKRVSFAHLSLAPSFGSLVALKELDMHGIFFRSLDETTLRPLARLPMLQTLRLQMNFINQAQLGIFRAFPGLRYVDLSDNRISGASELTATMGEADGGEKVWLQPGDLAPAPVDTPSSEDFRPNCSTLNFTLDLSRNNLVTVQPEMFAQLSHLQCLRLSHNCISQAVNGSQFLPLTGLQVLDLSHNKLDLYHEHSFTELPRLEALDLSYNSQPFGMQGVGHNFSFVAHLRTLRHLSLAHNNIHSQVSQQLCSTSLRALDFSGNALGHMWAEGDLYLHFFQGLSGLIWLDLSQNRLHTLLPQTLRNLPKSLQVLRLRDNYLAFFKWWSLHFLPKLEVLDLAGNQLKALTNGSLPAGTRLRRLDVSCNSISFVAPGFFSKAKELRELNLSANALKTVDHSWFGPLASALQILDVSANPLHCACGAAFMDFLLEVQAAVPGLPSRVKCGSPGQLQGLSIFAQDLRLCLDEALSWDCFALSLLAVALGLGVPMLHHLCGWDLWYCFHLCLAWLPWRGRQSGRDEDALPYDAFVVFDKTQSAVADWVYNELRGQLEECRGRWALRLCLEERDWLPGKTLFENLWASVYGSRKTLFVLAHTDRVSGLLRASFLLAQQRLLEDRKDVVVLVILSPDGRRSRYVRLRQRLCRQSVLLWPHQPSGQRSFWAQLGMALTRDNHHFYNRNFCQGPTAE", "experiment": "TLR9 inhibition reporter assay (HEK-Blue cells, secreted embryonic alkaline phosphatase reporter)", "format": "cell-based", "description": "TLR7/8/9 Inhibition Reporter Assays\nHEK-Blue™-cells (Invivogen) overexpressing human TLR7, TLR8 or TLR9 receptors were used for screening inhibitors of these receptors using an inducible SLAP (secreted embryonic alkaline phosphatase) reporter gene under the control of the […] minimal promoter fused to five NF-κB and AP-1-binding sites. Briefly, cells are seeded into Greiner 384 well plates (15000 cells per well for TLR7, 20,000 for TLR8 and 25,000 for TLR9) and then treated with test compounds in DMSO to yield a final dose response concentration range of 0.05 nM-50 μM. After a 30 minute compound pre-treatment at room temperature, the cells are then stimulated with a TLR7 ligand (gardiquimod at a final concentration of 7.5 μM), TLR8 ligand (R848 at a final concentration of 15.9 μM) or TLR9 ligand (ODN2006 at a final concentration of 5 nM) to activate NF-κB and AP-1 which induce the production of SLAP. After a 22 hour incubation at 37° C., […], SLAP levels are determined with the addition of HEK-Blue™ Detection reagent (Invivogen), a cell culture medium that allows for detection of SLAP, according to manufacturer's specifications. The percent inhibition is determined as the […] in the HEK-Blue signal present in wells treated with agonist plus DMSO alone compared to wells treated with a known inhibitor.", "key": {"[1]": {"conditions": "HEK-Blue cells overexpressing human TLR9, stimulated with ODN2006 5 nM, 22 hour incubation, reporter readout"}, "[2]": {"conditions": "HEK-Blue cells overexpressing human TLR9, stimulated with ODN2006 5 nM, read-out: TLR 9 IC50"}}, "note": "Read-outs that look alike come from different tables or passages of the source.", "data": [{"smiles": "Cc1cc(C2CCN(C3CC4CCC(C3)N4C3CCC3)CC2)cc2c1nc(-c1ccc(S(C)(=O)=O)c(F)c1)n2C", "note": "(single isomer, unassigned) [Example 123, 6-(1-(8-cyclobutyl-8-azabicyclo[3.2.1]octan-3-yl)piperidin-4-yl)-2-(3-fluoro-4-(methylsulfonyl)phenyl)-1,4-dimethyl-1H-benzo[d]imidazole]", "values": [{"measurement": "IC50", "setting": "[1]", "value": 890, "unit": "nM"}, {"measurement": "IC50", "setting": "[2]", "value": 889, "unit": "nM"}]}, {"smiles": "COc1ccc(-c2nc3c(C)cc(C4CCN(C5CC6CCC(C5)N6CC5CCC5)CC4)cc3n2C)cc1OC", "note": "(single isomer, unassigned) [Example 150, 6-(1-(8-(cyclobutylmethyl)-8-azabicyclo[3.2.1]octan-3-yl)piperidin-4-yl)-2-(3,4-dimethoxyphenyl)-1,4-dimethyl-1H-benzo[d]imidazole]", "values": [{"measurement": "IC50", "value": 32, "unit": "nM"}, {"measurement": "IC50", "setting": "[2]", "value": 32, "unit": "nM"}]}, {"smiles": "COc1ccc(-c2nc3c(C)cc(C4CCN(C5CC6CCC(C5)N6CC5CCC5)CC4)cc3n2C)cc1OC", "note": "(single isomer, unassigned) [Example 151, 6-(1-(8-(cyclobutylmethyl)-8-azabicyclo[3.2.1]octan-3-yl)piperidin-4-yl)-2-(3,4-dimethoxyphenyl)-1,4-dimethyl-1H-benzo[d]imidazole]", "values": [{"measurement": "IC50", "value": 170, "unit": "nM"}, {"measurement": "IC50", "setting": "[2]", "value": 172, "unit": "nM"}]}, {"smiles": "Cc1cc(C2CCN(C3CC4CCC(C3)N4CC3CC3)CC2)cc2c1nc(-c1ccc(S(C)(=O)=O)cc1)n2C", "note": "(single isomer, unassigned) [Example 155, 6-(1-(8-(cyclopropylmethyl)-8-azabicyclo[3.2.1]octan-3-yl)piperidin-4-yl)-1,4-dimethyl-2-(4-(methylsulfonyl)phenyl)-1H-benzo[d]imidazole]", "values": [{"measurement": "IC50", "value": 160, "unit": "nM"}, {"measurement": "IC50", "setting": "[2]", "value": 163, "unit": "nM"}]}, {"smiles": "Cc1cc(C2CCN(C3CC4CCC(C3)N4CC3CCC3)CC2)cc2c1nc(-c1ccc(S(C)(=O)=O)cc1)n2C", "note": "(single isomer, unassigned) [Example 157, 6-(1-(8-(cyclobutylmethyl)-8-azabicyclo[3.2.1]octan-3-yl)piperidin-4-yl)-1,4-dimethyl-2-(4-(methylsulfonyl)phenyl)-1H-benzo[d]imidazole]", "values": [{"measurement": "IC50", "value": 340, "unit": "nM"}, {"measurement": "IC50", "setting": "[2]", "value": 339, "unit": "nM"}]}, {"smiles": "COc1cc(-c2nc3c(C)cc(C4CCN(C5CC6CCC(C5)N6C5CCC5)CC4)cc3n2C)cn2ncnc12", "note": "(single isomer, unassigned) [Example 356, 6-(6-(1-(8-cyclobutyl-8-azabicyclo[3.2.1]octan-3-yl)piperidin-4-yl)-1,4-dimethyl-1H-benzo[d]imidazol-2-yl)-8-methoxy-[1,2,4]triazolo[1,5-a]pyridine]", "values": [{"measurement": "IC50", "setting": "[2]", "value": 41, "unit": "nM"}, {"measurement": "IC50", "setting": "HEK-Blue human TLR9 reporter cells", "value": 41, "unit": "nM"}]}, {"smiles": "COc1cc(-c2nc3c(C)cc(C4CCN(C5CCN(CC(C)C)CC5)CC4)cc3[nH]2)cn2ncnc12", "note": "[Example 61, 6-(6-(1′-isobutyl-[1,4′-bipiperidin]-4-yl)-4-methyl-1H-benzo[d]imidazol-2-yl)-8-methoxy-[1,2,4]triazolo[1,5-a]pyridine tris(2,2,2-trifluoroacetate)]", "values": [{"measurement": "IC50", "setting": "[1]", "value": 49, "unit": "nM"}, {"measurement": "IC50", "setting": "[2]", "value": 49, "unit": "nM"}]}, {"smiles": "Cc1cc(C2CCN(C3CCN(CC(C)C)CC3)CC2)cc2[nH]c(-c3ccc(OC(F)(F)F)cc3)nc12", "note": "[Example 63, 6-(1′-isobutyl-[1,4′-bipiperidin]-4-yl)-4-methyl-2-(4-(trifluoromethoxy)phenyl)-1H-benzo[d]imidazole]", "values": [{"measurement": "IC50", "setting": "[1]", "value": 200, "unit": "nM"}, {"measurement": "IC50", "setting": "[2]", "value": 196, "unit": "nM"}]}, {"smiles": "COc1ccc(-c2nc3c(C)cc(C4CCN(C5CCN(CC(C)C)CC5)CC4)cc3[nH]2)cc1Cl", "note": "[Example 64, 2-(3-chloro-4-methoxyphenyl)-6-(1′-isobutyl-[1,4′-bipiperidin]-4-yl)-4-methyl-1H-benzo[d]imidazole]", "values": [{"measurement": "IC50", "setting": "[1]", "value": 91, "unit": "nM"}, {"measurement": "IC50", "setting": "[2]", "value": 91, "unit": "nM"}]}, {"smiles": "Cc1cc(C2CCN(C3CCN(CC(C)C)CC3)CC2)cc2[nH]c(-c3ccc4c(c3)OC(F)(F)O4)nc12", "note": "[Example 65, 2-(2,2-difluorobenzo[d][1,3]dioxol-5-yl)-6-(1′-isobutyl-[1,4′-bipiperidin]-4-yl)-4-methyl-1H-benzo[d]imidazole tris(2,2,2-trifluoroacetate)]", "values": [{"measurement": "IC50", "setting": "[1]", "value": 300, "unit": "nM"}, {"measurement": "IC50", "setting": "[2]", "value": 297, "unit": "nM"}]}, {"smiles": "Cc1cc(C2CCN(C3CCN(CC(C)C)CC3)CC2)cc2[nH]c(-c3ccc(S(C)(=O)=O)c(F)c3)nc12", "note": "[Example 66, 2-(3-fluoro-4-(methylsulfonyl)phenyl)-6-(1′-isobutyl-[1,4′-bipiperidin]-4-yl)-4-methyl-1H-benzo[d]imidazole]", "values": [{"measurement": "IC50", "setting": "[1]", "value": 69, "unit": "nM"}, {"measurement": "IC50", "setting": "[2]", "value": 69, "unit": "nM"}]}, {"smiles": "Cc1cc(C2CCN(C3CCN(CC(C)C)CC3)CC2)cc2[nH]c(-c3ccc(S(C)(=O)=O)c(Br)c3)nc12", "note": "[Example 67, 2-(3-bromo-4-(methylsulfonyl)phenyl)-6-(1′-isobutyl-[1,4′-bipiperidin]-4-yl)-4-methyl-1H-benzo[d]imidazole]", "values": [{"measurement": "IC50", "setting": "[1]", "value": 44, "unit": "nM"}, {"measurement": "IC50", "setting": "[2]", "value": 44, "unit": "nM"}]}, {"smiles": "Cc1cc(C2CCN(C3CCN(CC(C)C)CC3)CC2)cc2[nH]c(-c3ccc(C4CC4)cc3)nc12", "note": "[Example 68, 2-(4-cyclopropylphenyl)-6-(1′-isobutyl-[1,4′-bipiperidin]-4-yl)-4-methyl-1H-benzo[d]imidazole]", "values": [{"measurement": "IC50", "setting": "[1]", "value": 85, "unit": "nM"}, {"measurement": "IC50", "setting": "[2]", "value": 85, "unit": "nM"}]}, {"smiles": "Cc1cc(C2CCN(C3CCN(CC(C)C)CC3)CC2)cc2[nH]c(-c3ccc(OC(F)F)c(F)c3)nc12", "note": "[Example 69, 2-(4-(difluoromethoxy)-3-fluorophenyl)-6-(1′-isobutyl-[1,4′-bipiperidin]-4-yl)-4-methyl-1H-benzo[d]imidazole tris(2,2,2-trifluoroacetate)]", "values": [{"measurement": "IC50", "setting": "[1]", "value": 240, "unit": "nM"}, {"measurement": "IC50", "setting": "[2]", "value": 241, "unit": "nM"}]}, {"smiles": "Cc1cc(C2CCN(C3CCN(CC(C)C)CC3)CC2)cc2[nH]c(-c3nc4ccccc4s3)nc12", "note": "[Example 70, 2-(6-(1′-isobutyl-[1,4′-bipiperidin]-4-yl)-4-methyl-1H-benzo[d]imidazol-2-yl)benzo[d]thiazole tris(2,2,2-trifluoroacetate)]", "values": [{"measurement": "IC50", "setting": "[1]", "value": 210, "unit": "nM"}, {"measurement": "IC50", "setting": "[2]", "value": 208, "unit": "nM"}]}, {"smiles": "Cc1noc(C)c1-c1nc2c(C)cc(C3CCN(C4CCN(CC(C)C)CC4)CC3)cc2[nH]1", "note": "[Example 71, 4-(6-(1′-isobutyl-[1,4′-bipiperidin]-4-yl)-4-methyl-1H-benzo[d]imidazol-2-yl)-3,5-dimethylisoxazole]", "values": [{"measurement": "IC50", "setting": "[1]", "value": 1800, "unit": "nM"}, {"measurement": "IC50", "setting": "[2]", "value": 1770, "unit": "nM"}]}, {"smiles": "Cc1cc(C2CCN(C3CCN(CC(C)C)CC3)CC2)cc2[nH]c(-c3cccc4ncccc34)nc12", "note": "[Example 72, 5-(6-(1′-isobutyl-[1,4′-bipiperidin]-4-yl)-4-methyl-1H-benzo[d]imidazol-2-yl)quinoline tris(2,2,2-trifluoroacetate)]", "values": [{"measurement": "IC50", "setting": "[1]", "value": 88, "unit": "nM"}, {"measurement": "IC50", "setting": "[2]", "value": 88, "unit": "nM"}]}, {"smiles": "Cc1cc(C2CCN(C3CCN(CC(C)C)CC3)CC2)cc2[nH]c(-c3ccc(OC(F)(F)F)c(Cl)c3)nc12", "note": "[Example 73, 2-(3-chloro-4-(trifluoromethoxy)phenyl)-6-(1′-isobutyl-[1,4′-bipiperidin]-4-yl)-4-methyl-1H-benzo[d]imidazole tris(2,2,2-trifluoroacetate)]", "values": [{"measurement": "IC50", "setting": "[1]", "value": 270, "unit": "nM"}, {"measurement": "IC50", "setting": "[2]", "value": 270, "unit": "nM"}]}, {"smiles": "Cc1cc(C2CCN(C3CCN(CC(C)C)CC3)CC2)cc2[nH]c(-c3ccc4cnccc4c3)nc12", "note": "[Example 74, 6-(6-(1′-isobutyl-[1,4′-bipiperidin]-4-yl)-4-methyl-1H-benzo[d]imidazol-2-yl)isoquinoline]", "values": [{"measurement": "IC50", "setting": "[1]", "value": 37, "unit": "nM"}, {"measurement": "IC50", "setting": "[2]", "value": 37, "unit": "nM"}]}, {"smiles": "Cc1cc(C2CCN(C3CCN(CC(C)C)CC3)CC2)cc2[nH]c(-c3ccc(S(=O)(=O)c4ccccc4)cc3)nc12", "note": "[Example 75, 6-(1′-isobutyl-[1,4′-bipiperidin]-4-yl)-4-methyl-2-(4-(phenylsulfonyl)phenyl)-1H-benzo[d]imidazole tris(2,2,2-trifluoroacetate)]", "values": [{"measurement": "IC50", "setting": "[1]", "value": 63, "unit": "nM"}, {"measurement": "IC50", "setting": "[2]", "value": 63, "unit": "nM"}]}]}
